Data on 24 compounds can be found in patent US9718799B2, “3-aryl-4H-chromene-4-ones as antineoplastic agents for the treatment of cancer” (The University of Kentucky Research Foundation, priority 2015, dated 2017).

The inhibition is the percentage by which the read-out fell short of the control. Higher therefore signals strong suppression. What is called melting point is the temperature of the solid-liquid transition. One may read the IC50 as the point on the concentration scale where inhibition reaches its midpoint.

Series [1] has as its system PC3 prostate cancer cells. In words: Cell proliferation assay in prostate cancer PC3 cells. Type of series: cell-based. The conditions noted are these: Homo sapiens, PC-3. The method, then:
Cell Proliferation Assay:
PC3 prostate cancer cells were cultured in DMEM/F-12 HAM Mixture (Sigma D8437), 10% Fetal Bovine Serum (Atlanta Biological S11150). Before the treatment, 3.5×10^4 cells per well were split into 12-well plates. After 24 h, 10 μM of each compound was added to each well. DMSO was used as a control. This experiment was done in triplicate. Cell viability and number were analyzed using Vi-Cell XR Cell Viability Analyzer (Beckman Coulter).

The test system of series [2] is PC3 prostate cancer cells. Description: Cell proliferation assay in prostate cancer PC3 cells. It is filed as cell-based.
For another series, the system named is P388 leukemia cells. The conditions noted are these: cited from earlier work.
Series [3] relates to different cancer cell lines. The conditions noted are these: cited from earlier work.

Compound `COCc1c(OC)cc(O)c2c(=O)c(-c3ccc(OC)cc3)coc12` [Isoflavonoid 11b, 5-Hydroxy-7-methoxy-8-(methoxymethyl)-3-(4-methoxyphenyl)-4H-chromen-4-one] showed a melting point of 126 to 128 °C. In series [1], this compound yielded an inhibition at 10 µM of 96.8 ± 0.8%.
Turning to `COc1ccc(-c2c(C)oc3c(COC(C)=O)c(OC(C)=O)ccc3c2=O)cc1` [Isoflavonoid 7e, 7-(Acetoxy)-8-(acetoxymethyl)-3-(4-methoxyphenyl)-2-methyl-4H-chromen-4-one], the melting point lay within 142 to 144 °C. The compound also had an inhibition at 10 µM in series [1] of 98.2 ± 1.5%.
On to `COc1ccc(-c2coc3c4c(ccc3c2=O)OC2OCCCC2C4)cc1` (stereo not drawn) [Isoflavonoid 21a, 3-(4-Methoxyphenyl)-10,11,11a,12-tetrahydro-4H,7aH,9H-dipyrano[2,3-b:2′,3′-f]chromen-4-one], for which the melting point fell in the range of 182 to 183 °C. In addition, the inhibition at 10 µM in series [1] was determined as 73 ± 6%.
On the same counts, the results for `COc1ccc(-c2c(C)oc3c4c(ccc3c2=O)OC2OCCCC2C4)cc1OC` (stereo not drawn) [Isoflavonoid 21h, 3-(3,4-Dimethoxyphenyl)-2-methyl-10,11,11a,12-tetrahydro-4H,7aH,9H-dipyrano[2,3-b:2′,3′-f]chromen-4-one] are 209 to 210 °C and 44 ± 3%.
Take `COc1ccc(-c2c(C)oc3c4c(ccc3c2=O)OC2OCCCC2C4)cc1` (stereo not drawn) [Isoflavonoid 21g, 3-(4-Methoxyphenyl)-2-methyl-10,11,11a,12-tetrahydro-4H,7aH,9H-dipyrano[2,3-b:2′,3′-f]chromen-4-one]: the melting point is 199 to 200 °C. In series [1], this compound showed an inhibition at 10 µM of 62%.
Turning to `COCc1c(O)ccc2c(=O)c(-c3ccc(OC)cc3)coc12` [Isoflavonoid 11d, 7-Hydroxy-8-(methoxymethyl)-3-(4-methoxyphenyl)-4H-chromen-4-one], the melting point is 167 to 169 °C (dec.). In addition, in series [1], the inhibition at 10 µM amounted to 34.9 ± 3.3%.
On the same counts, the results for `Cc1oc2c3c(ccc2c(=O)c1-c1ccc(Cl)cc1)OC1OCCCC1C3` (stereo not drawn) [Isoflavonoid 21i, 3-(4-Chlorophenyl)-2-methyl-10,11,11a,12-tetrahydro-4H,7aH,9H-dipyrano[2,3-b:2′,3′-f]chromen-4-one] are 205 to 206 °C and 74 ± 3%.
`O=c1c(-c2ccc3c(c2)OCCO3)coc2c3c(ccc12)OC1OCCCC1C3` (stereo not drawn) [Isoflavonoid 21d, 3-(2,3-Dihydro-1,4-benzodioxin-6-yl)-10,11,11a,12-tetrahydro-4H,7aH,9H-dipyrano[2,3-b:2′,3′-f]chromen-4-one] came in with a melting point of 160 to 162 °C. This compound returned an inhibition at 10 µM in series [1] of 48 ± 3%.
The matching figures for `COc1ccc(-c2c(C)oc3c(CO)c(O)ccc3c2=O)cc1` [Isoflavonoid 9e, 7-Hydroxy-8-(hydroxymethyl)-3-(4-methoxyphenyl)-2-methyl-4H-chromen-4-one]: 212 to 214 °C (dec.) and 99.5 ± 0.5%.
With `COCc1c(OC)cc2occ(-c3ccccc3OC)c(=O)c2c1O` [Isoflavonoid 10a, 5-Hydroxy-7-methoxy-6-(methoxymethyl)-3-(2-methoxyphenyl)-4H-chromen-4-one], the melting point was in the range of 123 to 124 °C. In addition, the inhibition at 10 µM in series [1] was determined as 53.4 ± 8%.
On to `COc1ccc(-c2coc3c(COC(C)=O)c(OC(C)=O)ccc3c2=O)cc1` [Isoflavonoid 7d, 7-(Acetoxy)-8-(acetoxymethyl)-3-(4-methoxyphenyl)-4H-chromen-4-one], for which the “potency at 1 µM concentration” value in series [2] (1 µM concentration) was “retained potency”. Moreover, in series [1], the inhibition at 10 µM is 99.2 ± 0.4%.
For `COCc1c(OC)cc(O)c2c(=O)cc(C)oc12` [8-(methoxymethyl)eugenin], the cytotoxicity entry in the series with P388 leukemia cells is reported as “moderate cytotoxicity”.
Take `O=c1c(-c2ccc(O)cc2)coc2cc(O)cc(O)c12` [genistein (B), genistein]: in series [3], the IC50 is 15 to 100 µM.
Regarding `COc1ccc(-c2coc3c(C)c4c(cc3c2=O)CC2CCOC2O4)cc1` (stereo not drawn) [Isoflavonoid 25a, 3-(4-Methoxyphenyl)-11-methyl-6a,7,8,9a-tetrahydro-4H,6H-furo[2,3-b]pyrano[3,2-g]chromen-4-one], the melting point lay in the range of 155 to 157 °C. Further, at 10 µM the inhibition in series [1] was 78 ± 3%.
Compound `COc1ccccc1-c1coc2cc(OC)c(CO)c(O)c2c1=O` [Isoflavonoid 8a, 5-Hydroxy-6-(hydroxymethyl)-7-methoxy-3-(2-methoxyphenyl)-4H-chromen-4-one] displayed a melting point of 100 to 101 °C. In series [1], this compound displayed an inhibition at 10 µM of 14.6 ± 3.2%.
The matching figures for `O=c1c(-c2ccc(Cl)cc2)coc2c3c(ccc12)OC1OCCCC1C3` (stereo not drawn) [Isoflavonoid 21e, 3-(4-Chlorophenyl)-10,11,11a,12-tetrahydro-4H,7aH,9H-dipyrano[2,3-b:2′,3′-f]chromen-4-one]: 195 to 197 °C and 44 ± 4%.
`COc1ccc(-c2coc3c4c(ccc3c2=O)OC2OCCC2C4)cc1` (stereo not drawn) [Isoflavonoid 20a, 3-(4-Methoxyphenyl)-9,10,10a,11-tetrahydro-4H,7aH-furo[2,3-b]pyrano[2,3-f]chromen-4-one] returned a melting point of 201 to 202 °C. Moreover, in series [1], 10 µM produced 62 ± 7% inhibition.
On the same counts, the results for `O=c1c(-c2ccc3c(c2)OCO3)coc2c3c(ccc12)OC1OCCCC1C3` (stereo not drawn) [Isoflavonoid 21c, 3-(1,3-Benzodioxol-5-yl)-10,11,11a,12-tetrahydro-4H,7aH,9H-dipyrano[2,3-b:2′,3′-f]chromen-4-one] are 179 to 181 °C and 68%.
Take `COc1ccc(-c2coc3c4c(ccc3c2=O)OC2(O)CCCCC2C4)cc1` (stereo not drawn) [Isoflavonoid 24a, 7a-Hydroxy-3-(4-methoxyphenyl)-8,9,10,11,11a,12-hexahydro-4H,7aH-pyrano[2,3-a]xanthen-4-one]: the melting point is 222 to 223 °C. Besides, in series [1], testing at 10 µM gave an inhibition of 30 ± 15%.
On the same counts, the results for `COc1ccccc1-c1coc2c(CO)c(O)ccc2c1=O` [Isoflavonoid 9c, 7-Hydroxy-8-(hydroxymethyl)-3-(2-methoxyphenyl)-4H-chromen-4-one] are 163 to 165 °C and 0%.
The matching figures for `COCc1c(O)ccc2c(=O)c(-c3ccccc3OC)coc12` [Isoflavonoid 11c, 7-Hydroxy-8-(methoxymethyl)-3-(2-methoxyphenyl)-4H-chromen-4-one]: 164 to 166 °C and 0%.
For `COc1ccc(-c2coc3c4c(ccc3c2=O)OC2=C(C4)C(=O)CC(C)(C)C2)cc1OC` [Isoflavonoid 22b, 3-(3,4-Dimethoxyphenyl)-9,9-dimethyl-8,9,10,12-tetrahydro-4H,11H-pyrano[2,3-a]xanthene-4,11-dione], the melting point lay within 196 to 198 °C. The inhibition at 1 µM in series [2] (Homo sapiens, PC-3, 1 μM) was 31%. Further, the inhibition at 10 µM in series [1] turned out to be 86 ± 1%. The inhibition at 10 µM in series [1] (PC3 cells, 10 μM) was 86%.
For the compound `O=c1c(-c2ccc3c(c2)OCO3)coc2c3c(ccc12)OC1OCCC1C3` (stereo not drawn) [Isoflavonoid 20c, 3-(1,3-Benzodioxol-5-yl)-9,10,10a,11-tetrahydro-4H,7aH-furo[2,3-b]pyrano[2,3-f]chromen-4-one], the melting point lay within 203 to 205 °C. In series [1], this compound registered an inhibition at 10 µM of 47 ± 4%.
As for `COc1ccc(-c2coc3c4c(ccc3c2=O)OC2(O)CCCCC2C4)cc1OC` (stereo not drawn) [Isoflavonoid 24b, 3-(3,4-Dimethoxyphenyl)-7a-hydroxy-8,9,10,11,11a,12-hexahydro-4H,7aH-pyrano[2,3-a]xanthen-4-one], the melting point was 214 to 216 °C. Also, the inhibition at 10 µM in series [1] stood at 56 ± 5%.
